The text below walks through data of patent US10975030B2, “Grp94 selective inhibitors and uses thereof” (University of Kansas, priority 2016, dated 2021).

Read-outs that look alike come from different tables or passages of the source. Some results are limits rather than exact numbers.

Data set [1] deals with Hsp70. In words: Western blot of Hsp70 levels. It counts as cell-based. To be noted: compared to 17-AAG (5 μM reference). Here is the method:
(§1) Cell Culture. Cell culture was performed as described in the art.^25 Tetracycline-inducible Hek cells stably overexpressing I477N mutant myocilin were grown and maintained in Dulbecco's Modified Eagle's Medium supplemented with 10% fetal bovine serum (Invitrogen, penicillin (100 units/mL), streptomycin ([…]) and 1% GlutaMAX (Invitrogen) at 37 C and 5% CO2. Stably overexpressing cells were selected for using hygromycin B ([…]) (InvivoGen) and G418 ([…]) (Gibco). I477N myocilin expression was induced with tetracycline ([…]) for 48H prior to drug treatment.
(§2) Inhibitor Treatment. Inhibitors were solubilized in DMSO (Sigma Aldrich), and diluted to documented concentrations. Cells were treated drop wise with inhibitors 24H prior to cell harvest. DMSO concentration was diluted to 1% total cell medium volume.
(§3) Cell Harvest. Cell harvest was performed as previously described.^21 24H after inhibitor treatment, culture medium was removed and cells were washed 2× with ice cold PBS. […]
(§4) Western Blotting. Western blot analysis was performed as previously described.^41 Cell lysates were prepared at identical protein concentrations, as determined by BCA analysis, in 2× Laemmli sample buffer (Bio-Rad) and denatured by boiling for 5 min at 100 C. […]
(In general: A western blot detects proteins with antibodies after separation by electrophoresis.)

In data set [2] the test system is I477N mutant myocilin. In words: Western blot of I477N mutant myocilin levels in tetracycline inducible HEK cells. It counts as cell-based. To be noted: 30 μM, 24 h, HEK cells over-expressing I477N myocilin. Here is the method:
as §1, §2, §3, §4

In data set [3] the test system is PC3-MM2 cells. In words: Immunofluorescence / confocal microscopy analysis of PC3-MM2 cells. It counts as cell-based. To be noted: FIG. 2B; for F-actin localization: confocal microscopy, versus DMSO treated cells; for integrin α2 localization: immunofluorescence, versus untreated cells. On the procedure:
(§5) Chemicals and Cell culture. Compounds were dissolved in DMSO and stored at −20° C. until use. The PC3-MM2 and MDA-MB-231 cells were maintained in DMEM (Cellgro) media supplemented with streptomycin (500 μg/mL), penicillin (100 units/mL) and 10% FBS at 37° C. and 5% CO2.
(§6) Antibodies. The following antibodies were used for western blotting and/or immunofluorescence: goat anti-integrin α L #sc6609, rabbit anti-SYNE2 #sc99066, and rabbit anti-actin #sc1616-R (Santa Cruz Biotech-nology, Santa Cruz, Calif.); rabbit anti-Integrin α 2 #ab181548, rabbit anti-VAMP2 #ab3347 (Abcam, Cambridge, Mass.); Phalloidin 647 #A22287 (Invitrogen, Carlsbad Calif.); rabbit anti-Rab10 #4262S (Cell Signaling Technology, Danvers, Mass.).
Immunofluorescence Analysis. For cell imaging, 1 μm-Slide 8 well ibidiTreat IBIDI glass slides were used. PC3-MM2 cells were fixed with freshly made 4% (w/w) paraformaldehyde in PBS for 15 min, permeabilized with 0.1% (w/w) Tween 20 in PBS for 5 min and quenched with 0.1% (w/w) sodium borohydride for 5 min. The sections were blocked with 3% (w/w) BSA in PBS for 1 h and incubated with the primary antibody at a 1:100 concentration in 1% BSA in PBS overnight, prior to incubation with secondary antibody conjugated with Alexa Fluor 568 for 3 h. The sections were counterstained with DAPI and/or with Phalloidin to visualize DNA and filamentous actin (F-actin), respectively. The wells were washed three times with PBS after each step.
Confocal images were acquired using a custom epifluorescent/confocal microscope composed of the following components: an Olympus IX81 inverted spinning disc confocal microscope base (Olympus America, Center Valley, Pa.), a Prior microscope stage for automated image acquisition (Prior Scientific, Rockland, Mass.), an Olympus 60X oil Immersion objective for confocal images (Olympus) and a Hamamatsu Electron Multiplying Charge-Coupled Device (EMCCD) camera (Hamamatsu, Hamamatsu, Shizuoka Prefecture, Japan). Images were captured using the SlideBook acquisition and analysis software, (Intelligent Imaging Innovations (3i), Denver, Colo.).
Images were collected with 8-10 image stacks with a 0.3 micron step size through the cells. Images were processed using Image J software (NIH).

Data set [4] concerns MDA-MB-231 cells. In words: Wound healing scratch assay, MDA-MB-231. It counts as cell-based. To be noted: 10 μM ('at 10 μM and 5 μM respectively'), 0, 16, 24 h, FIG. 3A. Here is the method: as §5
(§7) Wound Healing Scratch Assay. The cells were seeded in a 24-well plate in complete media and allowed to form a monolayer. After monolayer formation, a scratch was introduced with a sterile 0.1-10 μl pipet tip. The media was replaced with fresh media in the absence or presence of the indicated drug concentrations. Photomicrographs were taken at different time points with an Olympus IX71 microscope using a 10x air lens and CellSans Dimensions software. The images were processed with Image J software.

The subject of data set [5] is Akt. The experiment in a line: Western blot of cytosolic Hsp90 client protein Akt. It counts as cell-based. To be noted: 30 μM (same concentration). Here is the method: as §1, §2, §3, §4
Data set [6] has as its system integrin α2, integrin αL, Syne2, VAMP2, Rab10 in PC3-MM2 cells. The experiment in a line: Cell fractionation and Western blot analysis of PC3-MM2 cells. It counts as cell-based. Particulars: 30 μM, 24 h, cytoplasmic (Cyto) fraction, compared to DMSO, FIG. 2A. Here is the method: as §5, §6
Cell fractionation and Western Blot Analysis. […] After sedimenting the cell debris, the protein concentration of each lysate was measured in quadruplicate using the BCA protein assay and bovine serum albumin as the standard. The coefficient of variation was determined for each set of quadruplicate measures and if the variability exceeded 5%, the protein assay was repeated for that set of samples. […]

Data set [7] can be described thus: Anti-proliferation assay (MTS/PMS), MDA-MB-231. It counts as cell-based. To be noted: human, MDA-MB-231 cells, MDA-MB-231, 25 μM. On the procedure:
(§8) Anti-proliferation Assays. Cells were seeded (2000/well, 100 μL) in 96-well plates and incubated overnight. Following incubation, compounds with varying concentrations in DMSO (1% DMSO final concentration) were added and cells were returned to the incubator for 72 h. After 72 h, the cell viability was determined using an MTS/PMS cell proliferation kit (Promega) per the manufacturer's instructions. Absorption value from 1% DMSO wells were used as 100% proliferation, and values were adjusted accordingly.

Data set [8] in a line: Anti-proliferation assay (MTS/PMS), PC-3 MM-2. It counts as cell-based. To be noted: human, PC-3 MM-2 cells, PC-3 MM-2, 25 μM. Here is the method:
as §8

Data set [9] relates to PC-3 MM-2 cells. In words: Wound healing scratch assay, PC-3 MM-2. It counts as cell-based. To be noted: 5 μM ('at 10 μM and 5 μM respectively'), 0, 16, 24 h, FIG. 3B. On the procedure: as §5, §7
For data set [10], the target named is Grp94 (recombinant cGrp94) (Canis lupus familiaris (Dog) (Canis familiaris), UniProt P41148). The experiment in a line: Fluorescence polarization (FP) assay, cGrp94 with FITC-GDA. It counts as binding. On the procedure:
(§9) Fluorescence Polarization. Assay buffer (25 μL, 20 mM HEPES pH 7.3, 50 mM KCl, 5 mM MgCl2, 1 mM DTT, 20 mM Na2MoO4, 0.01% NP-40, and 0.5 mg/mL BGG) was added to 96-well plate (black well, black bottom) followed by the desired compound at the indicated final concentrations in DMSO (1% DMSO final concentration). […] Plates were incubated with rocking for 5 h at 4° C. […] Percent FITC-GDA bound was determined by using the DMSO millipolarization unit (mP) as the 100% bound value and the 0% for FITC-GDA. Kd values were calculated from separate experiments performed in triplicate using GraphPad Prism.
On the technique in general: In fluorescence polarisation assays a small probe gives low polarisation when free and higher when bound to something large.

Data set [11] deals with Hsp90α (Homo sapiens (Human), UniProt P07900). In words: Fluorescence polarization (FP) assay, Hsp90α. It counts as binding. Here is the method: as §9

Sequence of Grp94 (recombinant cGrp94) (P41148 22-804): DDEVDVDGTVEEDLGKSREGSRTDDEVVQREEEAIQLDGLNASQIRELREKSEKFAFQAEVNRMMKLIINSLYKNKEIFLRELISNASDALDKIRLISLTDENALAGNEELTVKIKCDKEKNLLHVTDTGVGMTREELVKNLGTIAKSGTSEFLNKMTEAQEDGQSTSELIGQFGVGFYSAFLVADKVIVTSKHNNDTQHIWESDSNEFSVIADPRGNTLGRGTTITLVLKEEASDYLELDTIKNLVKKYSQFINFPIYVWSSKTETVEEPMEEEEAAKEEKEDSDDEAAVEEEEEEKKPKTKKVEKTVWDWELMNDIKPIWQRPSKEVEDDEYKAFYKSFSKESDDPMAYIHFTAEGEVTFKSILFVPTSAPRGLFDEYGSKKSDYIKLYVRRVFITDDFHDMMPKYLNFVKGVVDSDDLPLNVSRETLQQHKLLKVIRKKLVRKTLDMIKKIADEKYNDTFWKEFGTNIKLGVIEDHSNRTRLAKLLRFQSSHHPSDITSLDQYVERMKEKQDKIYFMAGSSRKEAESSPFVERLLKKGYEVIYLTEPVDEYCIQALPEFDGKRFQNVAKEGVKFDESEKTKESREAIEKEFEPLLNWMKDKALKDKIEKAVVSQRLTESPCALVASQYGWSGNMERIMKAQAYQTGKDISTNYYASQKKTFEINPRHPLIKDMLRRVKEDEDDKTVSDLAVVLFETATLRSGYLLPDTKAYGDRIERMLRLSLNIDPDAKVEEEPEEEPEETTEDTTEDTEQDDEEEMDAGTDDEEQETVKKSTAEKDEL

Usually viability stands for a per cent measure of how many cells are alive, often set against a control. Lower therefore signals a greater loss of cells. Consider `NC(=O)c1ccc(-n2cccc2Cc2ccccc2O)cc1N[C@H]1CC[C@H](O)CC1` [Compound 8j, 4-(2-(2-hydroxybenzyl)-1H-pyrrol-1-yl)-2-(((1r,4r)-4-hydroxycyclohexyl)amino)benzamide], for which the Hsp70 levels entry in [1] was “remained unaffected”. In [2], the mutant myocilin levels entry is listed as “significant decrease”. Also, in data set [3], the F-actin localization result is listed as “formed sporadic patches in the cytoplasm” and the “integrin α2 localization” value is “localized as patches in the cytoplasm”. For the same compound, the “migration of MDA-MB-231 cells” value in data set [4] was “inhibited migration”. Besides, the Akt maturation result in [5] is “did not affect”. Besides, the “levels of integrin α2, integrin αL, Syne2, VAMP2, and Rab10” value in data set [6] is on record as “reduced levels”. The viability at 72 h, 25 µM in data set [7] was over 95%. In addition, the viability at 72 h, 25 µM in [8] is over 95%. In data set [9], the “migration of PC-3 MM-2 cells” value is “inhibited migration”.
In the case of `NC(=O)c1ccc(-n2cccc2Cc2ccccc2F)cc1N[C@H]1CC[C@H](O)CC1` [Compound 8e, 4-(2-(2-fluorobenzyl)-1H-pyrrol-1-yl)-2-(((1r,4r)-4-hydroxycyclohexyl)amino)benzamide], the Kd is 720 ± 140 nM in [10] (apparent Kd, cGrp94 and FITC-GDA, triplicates, ± SEM, read-out: Kd Grp94); about 724 nM in [10] (read-out: apparent Kd towards Grp94); over 100000 nM in data set [11]. The F-actin localization entry in [3] is “formed sporadic patches in the cytoplasm”. Moreover, the “integrin α2 localization” value in [3] is “localized as patches in the cytoplasm”. In addition, the “migration of MDA-MB-231 cells” value in data set [4] is “inhibited migration”. The “levels of integrin α2, integrin αL, Syne2, VAMP2, and Rab10” value in data set [6] is recorded as “reduced levels”. The viability at 72 h, 25 µM in [7] and in [8] was over 95% throughout. For the same compound, the “migration of PC-3 MM-2 cells” value in data set [9] was “inhibited migration”.
